# Legend:
# gram-positive bacteria = conditions: background art; cited from earlier work
# gram-negative bacteria = conditions: background art; CI-934 compared with Norfloxacin and Ciprofloxacin; cited from earlier work
# [1] = system: Bacteroides fragilis GM 7000; experiment: Antibacterial spectrum, MIC; conditions: GM7000
# [2] = system: Veillonella parvula KYA 10790; experiment: Antibacterial spectrum, MIC; conditions: KYA10790
# Pst. micros UPI 5464-1 = experiment: Antibacterial spectrum, MIC; conditions: Parvimonas micra, UPI54641
# S. epidermidis IID 866 = experiment: Antibacterial spectrum, MIC; type: cell-based; conditions: Staphylococcus epidermidis, IID866; 10^6 cells/ml; Gram +; standard strain
# Excerpt: (§1) In vitro antibacterial activity (standard strains)
# (§2) Organism (10^6 cells/ml)
# [3] = system: Acinetobacter anitratus IID 876; experiment: Antibacterial spectrum, MIC; type: cell-based; conditions: Acinetobacter calcoaceticus, IID876; 10^6 cells/ml; Gram -; standard strain
# Excerpt: as §1, §2
# B. distasonis 8503 = experiment: Antibacterial spectrum, MIC; type: cell-based; conditions: Parabacteroides distasonis, 10^6 cells/ml, Gram -, standard strain
# Excerpt: as §1, §2
# B. fragilis 0558 = experiment: Antibacterial spectrum, MIC; type: cell-based; conditions: Bacteroides fragilis, 10^6 cells/ml, Gram -, standard strain
# Excerpt: as §1, §2
# K. pneumoniae 1-220S = experiment: Antibacterial spectrum, MIC; type: cell-based; conditions: Klebsiella pneumoniae, 1220S; 10^6 cells/ml; Gram -; standard strain
# Excerpt: as §1, §2
# [4] = system: Staphylococcus aureus 209 P; experiment: Antibacterial spectrum, MIC; type: cell-based; conditions: 10^6 cells/ml, Gram +, standard strain
# Excerpt: as §1, §2
# [5] = system: Escherichia coli NIHJ JC-2; experiment: Antibacterial spectrum, MIC; type: cell-based; conditions: NIHJJC2, 10^6 cells/ml, Gram -, standard strain
# Excerpt: as §1, §2
# [6] = system: S. aureus IID 670 (Terajima); experiment: Antibacterial spectrum, MIC; type: cell-based; conditions: Staphylococcus aureus, IID670; 10^6 cells/ml; Gram +; standard strain
# Excerpt: as §1, §2
# B. fragilis 25285 = experiment: Antibacterial spectrum, MIC; type: cell-based; conditions: Bacteroides fragilis, 10^6 cells/ml, Gram -, standard strain
# Excerpt: as §1, §2
# Shigella sonnei IID 969 = experiment: Antibacterial spectrum, MIC; type: cell-based; conditions: IID969, 10^6 cells/ml, Gram -, standard strain
# Excerpt: as §1, §2
# [7] = system: Pseudomonas aeruginosa V-1; experiment: Antibacterial spectrum, MIC; conditions: V1
# [8] = system: Propionibacterium acens 11828; experiment: Antibacterial spectrum, MIC; type: cell-based
# [9] = system: Yersinia enterocolitica IID 981; experiment: microbe, parasite or virus in culture; type: cell-based; conditions: IID981
# C. ramosum = experiment: Antibacterial spectrum, MIC; type: cell-based; conditions: Thomasclavelia ramosa
# S. pyogenes IID 692 = experiment: microbe, parasite or virus in culture; conditions: Streptococcus pyogenes, IID692
# [10] = system: Eubacterium lentum GAI 5242; experiment: microbe, parasite or virus in culture; conditions: Eggerthella lenta, GAI5242
# F. varium KYA 8501 = experiment: Antibacterial spectrum, MIC; type: cell-based; conditions: Fusobacterium varium, KYA8501
# [11] = system: Morganella morganii IID 602; experiment: Antibacterial spectrum, MIC; type: cell-based; conditions: IID602
# [12] = system: Peptostreptococcus anaerobius KYA 27337; experiment: Antibacterial spectrum, MIC; type: cell-based; conditions: KYA27337
# P. aeruginosa IFO 12689 = experiment: microbe, parasite or virus in culture; conditions: Pseudomonas aeruginosa, IFO12689
# P. mirabilis IID 994 = experiment: Antibacterial spectrum, MIC; type: cell-based; conditions: Proteus mirabilis, IID994; 10^6 cells/ml; Gram -; standard strain
# Excerpt: as §1, §2
# [13] = system: Klebsiella pneumoniae KY(GN)6445; experiment: Antibacterial spectrum, MIC; type: cell-based; conditions: 10^6 cells/ml, Gram -, standard strain
# Excerpt: as §1, §2
# [14] = system: Salmonella enteritidis IID 604; experiment: Antibacterial spectrum, MIC; type: cell-based; conditions: Salmonella enterica; 10^6 cells/ml; Gram -; standard strain
# Excerpt: as §1, §2
# [15] = system: Streptococcus pyogenes (S-8); experiment: Antibacterial spectrum, MIC; type: cell-based; conditions: 10^6 cells/ml, Gram +, standard strain
# Excerpt: as §1, §2
# [16] = system: Alcaligenes faecalis 0114002; experiment: Antibacterial spectrum, MIC; type: cell-based; conditions: 10^6 cells/ml, Gram -, standard strain
# Excerpt: as §1, §2
# S. pneumoniae IID 552 = experiment: Antibacterial spectrum, MIC; type: cell-based; conditions: Streptococcus pneumoniae, IID552; 10^6 cells/ml; Gram +; standard strain
# Excerpt: as §1, §2
# [17] = system: Citrobacter freundii IID 976; experiment: Antibacterial spectrum, MIC; type: cell-based; conditions: IID976, 10^6 cells/ml, Gram -, standard strain
# Excerpt: as §1, §2
# [18] = system: Enterobacter cloacae IID 977; experiment: Antibacterial spectrum, MIC; type: cell-based; conditions: IID977, 10^6 cells/ml, Gram -, standard strain
# Excerpt: as §1, §2
# E. faecalis IID 682 = experiment: Antibacterial spectrum, MIC; type: cell-based; conditions: Enterococcus faecalis, IID682; 10^6 cells/ml; Gram +; standard strain
# Excerpt: as §1, §2
# [19] = system: Serratia marcescens IID 618; experiment: Antibacterial spectrum, MIC; type: cell-based; conditions: IID618, 10^6 cells/ml, Gram -, standard strain
# Excerpt: as §1, §2
# [20] = system: Fusobacterium necrophorum S-45; experiment: Antibacterial spectrum, MIC; type: cell-based; conditions: S45, 10^6 cells/ml, Gram -, standard strain
# Excerpt: as §1, §2
# E. coli ATCC l0536 = experiment: Antibacterial spectrum, MIC; type: cell-based; conditions: Escherichia coli, ATCCL0536
# Excerpt: as §1, §2
# [21] = system: Proteus vulgaris IFO 3167; experiment: Antibacterial spectrum, MIC; type: cell-based; conditions: IFO3167, 10^6 cells/ml, Gram -, standard strain
# Excerpt: as §1, §2
# [22] = system: Peptococcus magnus KY 017; experiment: microbe, parasite or virus in culture; conditions: Finegoldia magna, KY017
# [23] = system: Clostridium perfringens KYA 13123; experiment: microbe, parasite or virus in culture; conditions: KYA13123
# [24] = system: B. thetaiotaomicron (0661); experiment: Antibacterial spectrum, MIC; type: cell-based; conditions: Bacteroides thetaiotaomicron
# [25] = system: Bacillus subtilis PCI 219; experiment: Antibacterial spectrum, MIC by method recommended by Japan Society of Chemotherapy; type: cell-based; conditions: PCI219, 10^6 cells/ml, Gram +, standard strain
# Excerpt: as §1, §2
structure (smiles),measurement,setting,value
"CCNCC1CCN(c2c(F)cc3c(=O)c(C(=O)O)cn(CC)c3c2F)C1 (centres unmarked) [CI-934, 1-ethyl-7-[3-[(ethylamino)methyl]-1-pyrrolidinyl]-6,8-difluoro-1,4-dihydro-4-oxo-3-quinolinecarboxylic acid]",activity against gram-positive bacteria,gram-positive bacteria,relatively strong activity against gram-positive bacteria
same,activity against gram-negative bacteria,gram-negative bacteria,weaker activity against gram-negative bacteria than such known compounds as Norfloxacin and Ciprofloxacin
"O=C(O)c1cn(C2CC2)c2cc(N3CCNCC3)c(F)cc2c1=O [CPFX, ciprofloxacin, reference compound]",MIC,[1],6.25 µg/mL
same,MIC,[2],0.2 µg/mL
same,MIC,Pst. micros UPI 5464-1,0.2 µg/mL
same,MIC,S. epidermidis IID 866,0.2 µg/mL
same,MIC,[3],0.2 µg/mL
same,MIC,B. distasonis 8503,6.25 µg/mL
same,MIC,B. fragilis 0558,3.13 µg/mL
same,MIC,K. pneumoniae 1-220S,0.05 µg/mL
same,MIC,[4],0.2 µg/mL
same,MIC,[5],≤ 0.0063 µg/mL
same,MIC,[6],0.2 µg/mL
same,MIC,B. fragilis 25285,6.25 µg/mL
same,MIC,Shigella sonnei IID 969,0.0063 µg/mL
same,MIC,[7],0.05 µg/mL
"O=C(O)c1cn(C2CC2)c2c(Br)c(N3CCNCC3)c(F)cc2c1=O [Exp. 17, 8-Bromo-1-cyclopropyl-6-fluoro-1,4-dihydro-4-oxo-7-(1-piperazinyl)-3-quinolinecarboxylic acid]",MIC,[8],6.25 µg/mL
same,MIC,[9],0.05 µg/mL
same,MIC,C. ramosum,6.25 µg/mL
same,MIC,S. pyogenes IID 692,0.78 µg/mL
same,MIC,[10],0.39 µg/mL
same,MIC,F. varium KYA 8501,3.13 µg/mL
same,MIC,[11],0.05 µg/mL
same,MIC,[1],0.78 µg/mL
same,MIC,[12],1.56 µg/mL
same,MIC,P. aeruginosa IFO 12689,0.78 µg/mL
same,MIC,[2],0.39 µg/mL
same,MIC,Pst. micros UPI 5464-1,0.39 µg/mL
same,MIC,P. mirabilis IID 994,0.025 µg/mL
same,MIC,[13],0.025 µg/mL
same,MIC,S. epidermidis IID 866,0.2 µg/mL
same,MIC,[14],0.025 µg/mL
same,MIC,[3],0.1 µg/mL
same,MIC,B. distasonis 8503,1.56 µg/mL
same,MIC,[15],0.39 µg/mL
same,MIC,[16],0.2 µg/mL
same,MIC,B. fragilis 0558,0.78 µg/mL
same,MIC,S. pneumoniae IID 552,0.78 µg/mL
same,MIC,K. pneumoniae 1-220S,0.05 µg/mL
same,MIC,[17],0.025 µg/mL
same,MIC,[18],0.05 µg/mL
same,MIC,E. faecalis IID 682,0.39 µg/mL
same,MIC,[19],0.05 µg/mL
same,MIC,[4],0.1 µg/mL
same,MIC,[5],0.0125 µg/mL
same,MIC,[6],0.2 µg/mL
same,MIC,B. fragilis 25285,0.78 µg/mL
same,MIC,[20],0.78 µg/mL
same,MIC,Shigella sonnei IID 969,0.025 µg/mL
same,MIC,E. coli ATCC l0536,0.025 µg/mL
same,MIC,[21],0.025 µg/mL
same,MIC,[7],0.39 µg/mL
same,MIC,[22],0.39 µg/mL
same,MIC,[23],0.78 µg/mL
same,MIC,[24],1.56 µg/mL
same,MIC,[25],0.05 µg/mL

# From patent US4826982A, “Quinolonecarboxylic acid derivatives” (Kyorin Pharmaceutical Co., Ltd., priority 1985, dated 1989)
